Experimental data: patent US20160346249A1 (priority 2012, published 2016)

Assays:
[1] = 13-week dog toxicity and toxicokinetic study; format: in vivo; conditions: for AUC(0-t) / Cmax / Tmax: beagle, dog, in vivo; for AUC(0-t): read-out: AUC0-24; for body weight gain during the study: 20 mg/kg; for mean body weight lower than control: end of study
Description: […] For toxicology assessment, clinical observations, body weight, and food consumption measures were recorded periodically during the study. Ophthalmic examinations were performed and ECGs recorded during Weeks −1 and 12. Clinical pathology evaluations (hematology, serum chemistry, and urinalysis) were performed prior to the initiation of dose administration (Week −1) and prior to the scheduled necropsy (Week 13). At termination, complete necropsies were performed on all dogs and selected organs were weighed. Selected tissues from the control and 20 mg/kg/day group animals and animals euthanized in extremis were examined microscopically. Gross lesions from the 2 and 6 mg/kg/day groups were also examined.

[2] = 13-week rat toxicity and toxicokinetic study; format: in vivo; conditions: for AUC(0-t): read-out: AUC0-24
Description: In two separate experiments, toxicology and toxicokinetic studies were performed. […] Blood samples were collected on Day 0 and Day 87 of the study from up to 3 animals/gender/group.
For toxicology assessment, clinical observations, body weight and food consumptions measures were noted periodically during the study. At termination, clinical pathology evaluations (hematology and serum chemistry) were performed, necropsies conducted, selected organs were weighed, and selected tissues examined microscopically.

[3] = Female rat fertility study
Description: Physical signs, body weight, and food consumption were recorded periodically. Females were housed for up to 20 nights 1:1 with untreated males following 3 weeks of treatment. During cohabitation, vaginal lavages were performed daily. The presence of sperm in the lavage or a vaginal plug was considered positive evidence of mating. […] The day of confirmed mating was considered GD 0. Females with a confirmed mating were euthanized between GD 15 and 17. The uterus of each female was examined to determine pregnancy status. If there was no gross evidence of pregnancy, the uterus was stained with ammonium sulfide to visualize any early implantation sites. Corpora lutea per female were counted. Uterine implantations were counted, and each was classified as a live fetus, dead fetus, or a resorption. Fetuses were euthanized by rapid induction of hypothermia and discarded without further examination.

[4] = female, po, 2 mg/kg/day, females, 2 mg/kg/day, Day 0
[5] = female, po, 2 mg/kg/day, females, 2 mg/kg/day, Day 86
[6] = female, po, 6 mg/kg/day, females, 6 mg/kg/day, Day 0
[7] = female, po, 6 mg/kg/day, females, 6 mg/kg/day, Day 86
[8] = female, po, 20 mg/kg/day, females, 20 mg/kg/day, Day 0
[9] = female, po, 20 mg/kg/day, females, 20 mg/kg/day, Day 86
[10] = male, po, 2 mg/kg/day, males, 2 mg/kg/day, Day 0
[11] = male, po, 2 mg/kg/day, males, 2 mg/kg/day, Day 86
[12] = male, po, 6 mg/kg/day, males, 6 mg/kg/day, Day 0
[13] = male, po, 6 mg/kg/day, males, 6 mg/kg/day, Day 86
[14] = male, po, 20 mg/kg/day, males, 20 mg/kg/day, Day 0
[15] = male, po, 20 mg/kg/day, males, 20 mg/kg/day, Day 86
[16] = female, Crl:CD (SD)IGS BR, rat, in vivo, po, 10 mg/kg/day, females, 10 mg/kg/day, Day 0
[17] = female, Crl:CD(SD)IGS BR, rat, in vivo, po, 10 mg/kg/day, females, 10 mg/kg/day, Day 87
[18] = female, Crl:CD(SD)IGS BR, rat, in vivo, po, 25 mg/kg/day, females, 25 mg/kg/day, Day 0
[19] = female, Crl:CD(SD)IGS BR, rat, in vivo, po, 25 mg/kg/day, females, 25 mg/kg/day, Day 87
[20] = female, Crl:CD(SD)IGS BR, rat, in vivo, po, 60 mg/kg/day, females, 60 mg/kg/day, Day 0
[21] = female, Crl:CD(SD)IGS BR, rat, in vivo, po, 60 mg/kg/day, females, 60 mg/kg/day, Day 87
[22] = male, Crl:CD(SD)IGS BR, rat, in vivo, po, 10 mg/kg/day, males, 10 mg/kg/day, Day 0
[23] = male, Crl:CD(SD)IGS BR, rat, in vivo, po, 10 mg/kg/day, males, 10 mg/kg/day, Day 87
[24] = male, Crl:CD(SD)IGS BR, rat, in vivo, po, 25 mg/kg/day, males, 25 mg/kg/day, Day 0
[25] = male, Crl:CD(SD)IGS BR, rat, in vivo, po, 25 mg/kg/day, males, 25 mg/kg/day, Day 87
[26] = male, Crl:CD(SD)IGS BR, rat, in vivo, po, 60 mg/kg/day, males, 60 mg/kg/day, Day 0
[27] = male, Crl:CD(SD)IGS BR, rat, in vivo, po, 60 mg/kg/day, males, 60 mg/kg/day, Day 87

SMILES: Clc1ccc([C@]23CNC[C@H]2C3)cc1Cl [amitifadine, (+)-1-(3,4-dichlorophenyl)-3-azabicyclo[3.1.0]hexane]
- AUC(0-t) ([1]; female, oral, 6 mg/kg/day, females, 6 mg/kg/day, Day 86): 15900 ng·h/mL
- Cmax [1, 4]: 635 ng/mL
- Tmax [1, 4]: 1 h
- AUC(0-t) [1, 4]: 1480 ng·h/mL
- Cmax [1, 5]: 663 ng/mL
- Tmax [1, 5]: 1 h
- AUC(0-t) [1, 5]: 2150 ng·h/mL
- Cmax [1, 6]: 5120 ng/mL
- Tmax [1, 6]: 1 h
- AUC(0-t) [1, 6]: 13600 ng·h/mL
- Cmax [1, 7]: 4850 ng/mL
- Tmax [1, 7]: 1 h
- Cmax [1, 8]: 9280 ng/mL
- Tmax [1, 8]: 2 h
- AUC(0-t) [1, 8]: 63600 ng·h/mL
- Cmax [1, 9]: 8430 ng/mL
- Tmax [1, 9]: 1 h
- AUC(0-t) [1, 9]: 29600 ng·h/mL
- body weight gain during the study ([1]; females): 0.4 ± 0.79 kg
- mean body weight lower than control ([1]; females, 20 mg/kg/day): 9%
- AUC(0-t) ([1]; male, oral, 6 mg/kg/day, males, 6 mg/kg/day, Day 86): 13100 ng·h/mL
- Cmax [1, 10]: 507 ng/mL
- Tmax [1, 10]: 1 h
- AUC(0-t) [1, 10]: 1570 ng·h/mL
- Cmax [1, 11]: 753 ng/mL
- Tmax [1, 11]: 1 h
- AUC(0-t) [1, 11]: 2280 ng·h/mL
- Cmax [1, 12]: 4640 ng/mL
- Tmax [1, 12]: 1 h
- AUC(0-t) [1, 12]: 12800 ng·h/mL
- Cmax [1, 13]: 4140 ng/mL
- Tmax [1, 13]: 1 h
- Cmax [1, 14]: 11400 ng/mL
- Tmax [1, 14]: 1 h
- AUC(0-t) [1, 14]: 47800 ng·h/mL
- Cmax [1, 15]: 7230 ng/mL
- Tmax [1, 15]: 1 h
- AUC(0-t) [1, 15]: 44000 ng·h/mL
- body weight gain during the study ([1]; males): -0.3 ± 0.58 kg
- food consumption less than control ([1]; males, 20 mg/kg/day): ≥ 10%
- mean body weight lower than control ([1]; males, 20 mg/kg/day): 13%
- test article-related deaths (number of females) ([2]; 60 mg/kg/day, first week): Three
- female vs male AUC0-24 and Cmax difference ([2]; all dose groups): up to 85%
- NOAEL at 13 weeks ([2]; both sexes, Crl:CD(SD)IGS BR, rat, in vivo, oral gavage, 13 weeks): 10 mg/kg/day
- Tmax [2, 16]: 1 h
- AUC(0-t) [2, 16]: 10900 ng·h/mL
- AUC(0-t) ([2]; female, Crl:CD(SD)IGS BR, rat, in vivo, oral, 10 mg/kg/day, females, 10 mg/kg/day, Day 87): 14400 ng·h/mL
- Cmax [2, 17]: 1850 ng/mL
- Tmax [2, 17]: 1 h
- Cmax [2, 18]: 2810 ng/mL
- Tmax [2, 18]: 2 h
- AUC(0-t) [2, 18]: 31000 ng·h/mL
- Cmax [2, 19]: 3700 ng/mL
- Tmax [2, 19]: 2 h
- AUC(0-t) [2, 19]: 30200 ng·h/mL
- Cmax [2, 20]: 6600 ng/mL
- Tmax [2, 20]: 2 h
- AUC(0-t) [2, 20]: 54400 ng·h/mL
- Cmax [2, 21]: 6530 ng/mL
- Tmax [2, 21]: 2 h
- AUC(0-t) [2, 21]: 88100 ng·h/mL
- decrease in mean cumulative body weight gain vs control ([2]; females, 25 mg/kg/day): 13%
- decrease in mean cumulative body weight gain vs control ([2]; females, 60 mg/kg/day): 13%
- AUC(0-t) ([2]; male, Crl:CD(SD)IGS BR, rat, in vivo, oral, 10 mg/kg/day, males, 10 mg/kg/day, Day 87): 8130 ng·h/mL
- Cmax [2, 22]: 863 ng/mL
- Tmax [2, 22]: 2 h
- AUC(0-t) [2, 22]: 5940 ng·h/mL
- Cmax [2, 23]: 1120 ng/mL
- Tmax [2, 23]: 1 h
- Cmax [2, 24]: 2360 ng/mL
- Tmax [2, 24]: 2 h
- AUC(0-t) [2, 24]: 17400 ng·h/mL
- Cmax [2, 25]: 2490 ng/mL
- Tmax [2, 25]: 2 h
- AUC(0-t) [2, 25]: 22000 ng·h/mL
- Cmax [2, 26]: 3680 ng/mL
- Tmax [2, 26]: 1 h
- AUC(0-t) [2, 26]: 36300 ng·h/mL
- Cmax [2, 27]: 5010 ng/mL
- Tmax [2, 27]: 1 h
- AUC(0-t) [2, 27]: 60100 ng·h/mL
- decrease in mean cumulative body weight gain vs control ([2]; males, 25 mg/kg/day): 16%
- decrease in mean cumulative body weight gain vs control ([2]; males, 60 mg/kg/day): 30%
- body weight loss ([3]; 34 mg/kg/day, first 4 days): -26 g
- decreased food consumption ([3]; 34 mg/kg/day, first 4 days): −50%
- NOEL reproductive performance ([3]; female rats): ≥ 34 mg/kg/day
- NOEL general toxicity ([3]; female, Crl:CD(SD), rat, in vivo): 9 mg/kg/day
